Assay results: the NIST ThermoML archive (doi:10.1016/j.fluid.2007.10.010)
± gives the expanded uncertainty stated by the source.

Columns and labels:
[1] = 298.15 K; 101.33 kPa; Liquid; Vibrating tube method
[2] = refractive index (Na D-line) (dimensionless); details: 298.15 K; 101.33 kPa; Liquid; Standard Abbe refractometry

Compound	mass density [1] [kg/m3]	refractive index [2]
CCCCCCCCCCCCCCCC [hexadecane]	771.15 ± 0.3	1.43232 ± 0.0007
CCCCCCCCn1cc[n+](C)c1.O=S(=O)([N-]S(=O)(=O)C(F)(F)F)C(F)(F)F	1320.76 ± 12	1.43331 ± 0.0012
CCCCCC [hexane]	655.06 ± 0.31	1.37287 ± 0.0007
c1ccsc1 [thiophene]	1058.5 ± 0.23	1.52581 ± 0.00068
CCCCCCC [heptane]	679.466 ± 0.26	1.38517 ± 0.00068
